Measured values: paper PMC6270149, “Bioactive Flavone-C-Glycosides of the African Medicinal Plant Biophytum umbraculum” (Molecules, 2013)
Like-named read-outs stand apart in the source and are kept apart here.

Tests used:
xanthine oxidase (XO) = xanthine oxidase (XO) (Bos taurus, UniProt P80457); test: Inhibition of xanthine oxidase (XO); format: biochemical; conditions: isolated compounds dissolved in DMSO; triplicates, mean ± SD
Method: (§1) Pure substances and crude extracts (Soxhlet) were dissolved in DMSO, and the assay was carried out as reported previously.

DPPH radical scavenging = conditions: triplicates, mean ± SD; for IC50: isolated compounds dissolved in DMSO
Method: Pure substances and crude extracts (Soxhlet) were dissolved in DMSO, and the assay was carried out as reported previously. Quercetin (Sigma-Aldrich) was used as positive control.

15-lipoxygenase (15-LO) = biological target: T1, 15-lipoxygenase (15-LO) (Glycine max, UniProt P08170); test: Inhibition of 15-lipoxygenase (15-LO); format: biochemical; conditions: isolated compounds dissolved in DMSO, triplicates, mean ± SD
T1 sequence (P08170 1-839): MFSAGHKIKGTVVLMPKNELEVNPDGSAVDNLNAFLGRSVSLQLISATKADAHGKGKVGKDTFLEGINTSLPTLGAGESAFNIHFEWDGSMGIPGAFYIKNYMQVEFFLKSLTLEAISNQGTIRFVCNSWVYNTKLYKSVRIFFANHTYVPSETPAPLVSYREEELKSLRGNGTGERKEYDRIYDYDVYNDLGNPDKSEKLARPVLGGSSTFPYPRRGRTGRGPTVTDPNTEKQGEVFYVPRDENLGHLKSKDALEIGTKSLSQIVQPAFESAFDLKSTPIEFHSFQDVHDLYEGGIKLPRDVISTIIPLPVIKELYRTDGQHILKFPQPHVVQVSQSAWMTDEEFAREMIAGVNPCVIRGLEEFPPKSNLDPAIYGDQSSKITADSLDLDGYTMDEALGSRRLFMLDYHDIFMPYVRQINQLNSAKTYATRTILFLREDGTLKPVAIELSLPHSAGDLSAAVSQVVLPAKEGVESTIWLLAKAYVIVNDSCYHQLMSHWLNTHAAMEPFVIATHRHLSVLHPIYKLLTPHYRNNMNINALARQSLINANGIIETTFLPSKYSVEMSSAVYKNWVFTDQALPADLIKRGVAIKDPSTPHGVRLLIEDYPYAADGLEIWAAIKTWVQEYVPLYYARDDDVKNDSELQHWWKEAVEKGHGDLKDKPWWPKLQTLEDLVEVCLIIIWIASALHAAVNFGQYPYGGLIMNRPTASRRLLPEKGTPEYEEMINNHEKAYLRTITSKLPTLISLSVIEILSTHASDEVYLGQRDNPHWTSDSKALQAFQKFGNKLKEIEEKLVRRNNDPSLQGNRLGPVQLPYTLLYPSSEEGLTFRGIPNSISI
Method: as §1

[1] = read-out: 15-lipoxygenase (15-LO) inhibition IC50 ± SD

Sequence of xanthine oxidase (XO) (P80457 whole entry): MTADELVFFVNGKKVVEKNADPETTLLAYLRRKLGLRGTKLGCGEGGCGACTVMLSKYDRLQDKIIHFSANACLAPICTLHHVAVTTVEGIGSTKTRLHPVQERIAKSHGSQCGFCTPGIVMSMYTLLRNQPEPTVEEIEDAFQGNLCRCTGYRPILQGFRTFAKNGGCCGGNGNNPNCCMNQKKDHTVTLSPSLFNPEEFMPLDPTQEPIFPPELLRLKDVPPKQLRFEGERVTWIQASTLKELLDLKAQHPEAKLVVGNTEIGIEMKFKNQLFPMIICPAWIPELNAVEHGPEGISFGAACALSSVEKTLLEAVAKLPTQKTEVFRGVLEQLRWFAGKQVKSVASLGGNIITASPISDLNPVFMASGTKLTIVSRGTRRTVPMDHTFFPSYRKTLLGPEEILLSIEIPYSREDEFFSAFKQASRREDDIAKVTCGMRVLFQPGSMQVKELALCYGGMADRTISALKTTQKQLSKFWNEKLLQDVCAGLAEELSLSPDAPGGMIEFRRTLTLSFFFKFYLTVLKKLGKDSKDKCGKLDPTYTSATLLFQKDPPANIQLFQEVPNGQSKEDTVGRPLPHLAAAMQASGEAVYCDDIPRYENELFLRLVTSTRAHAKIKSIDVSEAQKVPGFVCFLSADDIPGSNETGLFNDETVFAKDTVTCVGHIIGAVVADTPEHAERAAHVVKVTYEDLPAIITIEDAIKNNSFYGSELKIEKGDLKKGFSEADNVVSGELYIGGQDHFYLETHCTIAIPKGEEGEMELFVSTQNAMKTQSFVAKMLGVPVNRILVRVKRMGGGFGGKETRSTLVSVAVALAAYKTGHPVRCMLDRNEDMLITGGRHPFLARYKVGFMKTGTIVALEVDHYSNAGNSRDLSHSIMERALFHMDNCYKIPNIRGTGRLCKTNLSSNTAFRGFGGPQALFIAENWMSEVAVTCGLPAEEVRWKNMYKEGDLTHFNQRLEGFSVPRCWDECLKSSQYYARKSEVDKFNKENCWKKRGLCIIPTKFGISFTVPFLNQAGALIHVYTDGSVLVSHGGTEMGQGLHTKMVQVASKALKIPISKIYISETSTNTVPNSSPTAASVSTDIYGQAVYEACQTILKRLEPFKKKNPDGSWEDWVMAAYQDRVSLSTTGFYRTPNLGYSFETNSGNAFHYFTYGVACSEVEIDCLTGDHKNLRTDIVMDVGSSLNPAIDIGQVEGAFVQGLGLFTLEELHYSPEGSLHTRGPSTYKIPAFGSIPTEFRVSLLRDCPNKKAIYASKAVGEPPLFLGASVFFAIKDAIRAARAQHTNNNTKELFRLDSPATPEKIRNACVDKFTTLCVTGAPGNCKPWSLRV

| DPPH radical scavenging IC50 ± SD (DPPH radical scavenging; extracts (Soxhlet) dissolved in DMSO) [mg/L] | Structure (SMILES) | IC50 (xanthine oxidase (XO)) [µM] | IC50 (DPPH radical scavenging) [µM] | IC50 (15-lipoxygenase (15-LO); [1]) [µM] | IC50 (15-lipoxygenase (15-LO); 15-lipoxygenase (15-LO) inhibition IC50 ± SD) [µM] |
| --- | --- | --- | --- | --- | --- |
| – | O=c1cc(-c2ccc(O)cc2)oc2cc(O)c([C@@H]3O[C@H](CO)[C@@H](O)[C@H](O)[C@H]3O)c(O)c12 [Isovitexin (2), isovitexin] | > 167 | 96 ± 3.6 | 107 ± 2.1 | – |
| 4.4 ± 0.4 | O=c1c(O)c(-c2ccc(O)c(O)c2)oc2cc(O)cc(O)c12 [Quercetin, reference compound] | – | 13.7 ± 1.3 | – | – |
| – | C[C@@H]1O[C@@H](O[C@H]2C(=O)[C@@H](O)[C@H](C)O[C@@H]2c2c(O)cc3oc(-c4ccc(O)cc4)cc(=O)c3c2O)[C@H](O)[C@H](O)[C@H]1O [Cassiaoccidentalin A (1), cassiaoccidentalin A] | 150 ± 7.4 | > 167 | 99.9 ± 2.5 | – |
| – | O=c1cc(-c2ccc(O)c(O)c2)oc2cc(O)c([C@@H]3O[C@H](CO)[C@@H](O)[C@H](O)[C@H]3O)c(O)c12 [Isoorientin (3), isoorientin] | 117 ± 13.5 | 18.1 ± 1.1 | – | 86.4 ± 0.5 |
